As usually defined, the EC50 is the concentration that produces a half-maximal response. A high value points to a need for much substance.

The test system of this assay is Per2-dLuc U2OS reporter cells. Description: Per2 assay for evaluating the potency of test compounds (high-throughput circadian assay). Type of assay: cell-based. The following applies: Homo sapiens, U2OS, stable U2OS reporter cells harboring Per2-dLuc; luminescence monitored over 4-5 days at 35° C. A digest of the protocol: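 After 24 h culture, U2OS cells carrying Per2-dLuc were serum-shock synchronized into explant medium with 1.0 mM luciferin (10 mM HEPES pH 7.0) and compound in 0.5% DMSO. Luminescence was recorded over 4–5 days at 35 °C. Circadian period, amplitude and phase were derived, and EC50 calculated.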
With `CS(=O)(=O)N(CC(O)Cn1c2ccccc2c2ccccc21)C1CCCC(F)(F)C1` (stereo not drawn) [Compound 134, N-(3-(9H-Carbazol-9-yl)-2-hydroxypropyl)-N-(3,3-difluorocyclohexyl)methanesulfonamide], the EC50 was determined as 1080 nM. Compound `CC(O)(CN1CCCN(C2CCCCC2)S1(=O)=O)Cn1c2ccc(F)cc2c2cc(F)ccc21` (stereo not drawn) [Compound 223, 2-(3-(3,6-Difluoro-9H-carbazol-9-yl)-2-hydroxy-2-methylpropyl)-6-cyclohexyl-1,2,6-thiadiazinane-1,1-dioxide] gave an EC50 of 6790 nM. The value for `CC(O)(CN(c1ccccc1)S(C)(=O)=O)Cn1c2ccc(F)cc2c2cc(F)ccc21` (stereo not drawn) [Compound 215, N-(3-(3,6-Difluoro-9H-carbazol-9-yl)-2-hydroxy-2-methylpropyl)-N-phenylmethanesulfonamide] was 7880 nM; that for `O=S(=O)(c1ccccc1)N(Cc1ccco1)CC(O)Cn1c2ccccc2c2ccccc21` (stereo not drawn) [Compound 4, N-(3-(9H-Carbazol-9-yl)-2-hydroxypropyl)-N-(furan-2-ylmethyl)benzenesulfonamide] was 2500 nM. In turn, `COC1CCS(=O)(=O)N(CC(O)Cn2c3ccccc3c3ccccc32)C1` (stereo not drawn) [Compound 112, N-(3-(9H-Carbazol-9-yl)-2-hydroxypropyl)-4-methoxy-1,2-thiazinane-1,1-dioxide] yielded an EC50 of 44 nM. Compound `COC(=O)N1CCC(N(CC(O)Cn2c3ccccc3c3ccccc32)S(C)(=O)=O)CC1` (stereo not drawn) [Compound 129, Methyl 4-(N-(3-(9H-carbazol-9-yl)-2-hydroxypropyl)methylsulfonamido)piperidine-1-carboxylate] showed an EC50 of 386 nM.

The values above are taken from patent publication US10383880B2 (Reset Therapeutics, Inc., priority 2012, dated 2019).
